Holding throughout (format): in vivo
The subject of assay [1] is Mythimna separata. Kind of assay: Efficacy test against Mythimna separata (maize leaf dipping). The settings on record: 125 ppm, maize leaf pieces immersed, second instar larvae, 6 days after release. How it is done:
(§1) 5 parts by weight of the compound of the present invention, 93.6 parts by weight of dimethylformamide, and 1.4 parts by weight of polyoxyethylene alkylaryl ether were mixed and dissolved to prepare an emulsion (1) containing 5% of an active ingredient.
The emulsion (1) was diluted with water so that the concentration of the compound of the present invention was 125 ppm. Maize leaf pieces were immersed in the diluent for 30 seconds. The maize leaf pieces were placed in a petri dish, and five second instar larvae of M. separata were released.
The petri dish was left to stand in a thermostatic chamber at a temperature of 25° C. and a humidity of 60% during the test period. Mortality was evaluated when 6 days passed since the release of the insects, and the insecticidal rate was calculated. The test was repeated twice.

Assay [2] relates to Spodoptera litura. As to the kind of experiment: Efficacy test against Spodoptera litura (cabbage leaf dipping). The settings on record: 125 ppm, cabbage leaves immersed, second instar larvae, 6 days after release. The protocol: as §1
The emulsion (1) was diluted with water so that the concentration of the compound of the present invention was 125 ppm. Cabbage leaves were immersed in the diluent for 30 seconds. The cabbage leaves were placed in a petri dish, and five second instar larvae of S. litura were released. The petri dish was left to stand in a thermostatic chamber at a temperature of 25° C. and a humidity of 60% during the test period. Mortality was evaluated when 6 days passed since the release of the insects, and the insecticidal rate was calculated. The test was repeated twice.

Assay [3] deals with Plutella xylostella. Kind of assay: Efficacy test against Plutella xylostella (cabbage leaf dipping). The settings on record: 125 ppm, cabbage leaves immersed, second instar larvae, 3 days after release. How it is done: as §1
The emulsion (I) was diluted with water so that the concentration of the compound of the present invention was 125 ppm. Cabbage leaves were immersed in the diluent for 30 seconds. The cabbage leaves were air dried and placed in a petri dish, and five second instar larvae of P. xylostella were released. The petri dish was left to stand in a thermostatic chamber at a temperature of 25° C. and a humidity of 60% during the test period. Mortality was evaluated when 3 days passed since the release of the insects, and the insecticidal rate was calculated. The test was repeated twice.

Assay [4] has as its system Tetranychus urticae. Kind of assay: Efficacy test against Tetranychus urticae (spray on kidney bean plants). The following applies: 125 ppm spray on kidney bean plants, adult females removed after 3 days, surviving individuals 10 days after spraying.
From the text: as §1
98.6 parts by weight of dimethylformamide, and 1.4 parts by weight of polyoxyethylene alkylaryl ether were mixed and dissolved to prepare an emulsion (11) containing no active ingredient.
Kidney bean plants were raised in No. 3 pots, and 8 adult females of T. urticae from Aomori Prefecture were inoculated on primary leaves. The emulsion (I) was diluted with water so that the concentration of the compound of the present invention was 125 ppm. The diluent was sprayed on the kidney bean plants (treated group).
On the same day, the emulsion (11) was diluted 400 times with water. The diluent was sprayed on the kidney bean plants (untreated group).
The above No. 3 pots were left to stand in a thermostatic chamber at a temperature of 25° C. and a humidity of 65% during the test period. The inoculated adult females of T. urticae were removed with an aspirator 3 days after spraying. Eggs were laid on the leaves. The number of surviving individuals was examined 10 days after spraying, and the control rate was calculated according to the following formula. The test was repeated twice. Control rate (%)=100×[1−Nt/Nc] […]

Assay [5] has as its system Thrips palmi. As to the kind of experiment: Efficacy test against Thrips palmi (spray on kidney bean leaf piece). The settings on record: 125 ppm spray, first instar larvae, 2 days. The protocol: as §1
1% agar was poured into a plastic petri dish (90 mm diameter), and a primary leaf piece of a kidney bean plant was placed thereon. 15 first instar larvae of T. palmi were inoculated thereon. The emulsion (I) was diluted with water so that the concentration of the compound of the present invention was 125 ppm. The diluent was sprayed on the leaf piece of the kidney bean plant. The petri dish was left to stand in a thermostatic chamber at a temperature of 25° C. and a humidity of 60% during the test period. Mortality of T. palmi was examined 2 days after that, and the insecticidal rate was calculated. The test was repeated twice.

Assay [6] relates to diamide-based insecticide-resistant Plutella xylostella. As to the kind of experiment: Efficacy test against diamide-based insecticide-resistant Plutella xylostella. The following applies: 125 ppm, cabbage leaves immersed, second instar larvae, 3 days. How it is done: as §1
The emulsion (I) was diluted with water so that the concentration of the compound of the present invention was 125 ppm. Cabbage leaves were immersed in the diluent for 30 seconds. The cabbage leaves were air dried and placed in a petri dish, and five second instar larvae of diamide-based insecticide-resistant P. xylostella were released.
(§2) The petri dish was left to stand in a thermostatic chamber at a temperature of 25° C. and a humidity of 60% during the test period. Mortality was evaluated when 3 days passed since the release of the insects, and the insecticidal rate was calculated. The test was repeated twice.

In assay [7] the test system is benzoylurea-based insecticide-resistant Helicoverpa armigera. Kind of assay: Efficacy test against benzoylurea-based insecticide-resistant Helicoverpa armigera. The following applies: 125 ppm, cabbage leaves immersed, second instar larvae, 3 days. The protocol:
as §1
The emulsion (I) was diluted with water so that the concentration of the compound of the present invention was 125 ppm. Cabbage leaves were immersed in the diluent for 30 seconds. The cabbage leaves were air dried and placed in a petri dish, and 8 second instar larvae of benzoylurea-based insecticide-resistant H. armigera were inoculated.
as §2

The values below come from US11445726B2, “Pyridinium salt and pest control agent” (Nippon Soda Co., Ltd., priority 2017, dated 2022).

In the case of `O=C(N[n+]1ccccc1)c1ccc(Cl)cc1` [comparative compound A], the “insecticidal rate against M. separata” value in assay [1] stood at 0%. The “insecticidal rate against S. litura” value in assay [2] is on record as 0%. In assay [3], the “insecticidal rate against P. xylostella” value turned out to be 0%. For the same compound, the “control rate against T. urticae” value in assay [4] turned out to be 100%. For the same compound, the “insecticidal rate against T. palmi” value in assay [5] turned out to be 0%. In assay [6], the “insecticidal rate against diamide-based insecticide-resistant P. xylostella” value was found to be 0%. Moreover, in assay [7], the “insecticidal rate against benzoylurea-based insecticide-resistant H. armigera” value stood at 0%.
